According to patent US20260000697A1, “COMBINATION FORMULATION OF CEDAZURIDINE” (Otsuka Pharmaceutical Co., Ltd., priority 2022, published 2026):
“And” between values parts separate entries of the source, which are not always exact repeats. Equal entries are not always repeated. Where two headings read alike, the source gives them in different places.

How the values were obtained:
[1] = clinical
Procedure: Blood samples were collected pre-dose, and 0.5, 1, 1.5, 2, 2.5, 3, 3.5, 4, 5, 7, 9 and 24 hours after dosing.

[2] = 80 mg oral dose, 3 subjects, one value per subject, post-dose; cited from earlier work
[3] = for release at buffer stage from enteric capsule: 50 mM phosphate buffer pH 6.8; for release at buffer stage from enteric capsule / release in acid stage from enteric capsule: Capsule 1 and Capsule 2; for release in acid stage from enteric capsule: 0.1 N HCl, 2 hours
[4] = test system: fetal hemoglobin levels (Hb F); conditions: orally administered (8 mg/kg), repeatedly phlebotomized baboon (PCV less than 20%); cited from earlier work
[5] = human, blood, subcutaneous, 60 mg

| AUC(0-t) [1, 5] [ng·h/mL] | Cmax [1, 5] [ng/mL] | Tmax [1, 5] [h] | release at buffer stage from enteric capsule [3] | release in acid stage from enteric capsule [3] | stability in dissolution medium ([3]; pH 6.8) | Structure (SMILES) | Tmax [2] | elevation in fetal hemoglobin levels (Hb F) [4] | effect of co-administration on azacitidine PK ([1]; 60 mg oral delayed release azacitidine with vs without 60 mg cedazuridine) |
| --- | --- | --- | --- | --- | --- | --- | --- | --- | --- |
| 761 | 384 | 0.6 | – | – | – | Nc1ncn([C@@H]2O[C@H](CO)[C@@H](O)[C@H]2O)c(=O)n1 [Group 1 (azacitidine, SQ), azacitidine] | – | – | – |
| – | – | – | rapidly released | slowly released | – | Nc1ncn([C@@H]2O[C@H](CO)C(O)[C@@H]2O)c(=O)n1 (some centres unmarked) [azacitidine] | 1.5 h and 2.0 h and 1.0 h | no elevation | – |
| – | – | – | rapidly released | slowly released | degradation is minimal | O=C1N[C@H](O)CCN1[C@@H]1O[C@H](CO)[C@@H](O)C1(F)F [cedazuridine] | – | – | increased Tmax, Cmax and AUC for azacitidine |
